Results from PubChem BioAssay (NCI).
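In this assay, cells in 96-well plates receive the compound at five concentrations for 48 hours. Endpoints are linearly interpolated between the surrounding concentrations. At the TGI there is no net growth.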

Experiments:
Assay in all cases: NCI tumour cell line growth inhibition, 48 h
SN12C renal = system: SN12C renal
HCC-2998 colon = system: HCC-2998 colon
HCT-116 colon = system: HCT-116 colon
OVCAR-8 ovarian = system: OVCAR-8 ovarian
COLO 205 colon = system: COLO 205 colon
ACHN renal = system: ACHN renal
SF-268 CNS = system: SF-268 CNS
MOLT-4 leukemia = system: MOLT-4 leukemia
HOP-62 NSCLC = system: HOP-62 NSCLC
PC-3 prostate = system: PC-3 prostate

| SMILES | TGI (SN12C renal) [µM] | TGI (HCC-2998 colon) [µM] | TGI (HCT-116 colon) [µM] | TGI (OVCAR-8 ovarian) [µM] | TGI (COLO 205 colon) [µM] | TGI (ACHN renal) [µM] | TGI (SF-268 CNS) [µM] | TGI (MOLT-4 leukemia) [µM] | TGI (HOP-62 NSCLC) [µM] | TGI (PC-3 prostate) [µM] |
| --- | --- | --- | --- | --- | --- | --- | --- | --- | --- | --- |
| CCCCCCCCCCCCCCCCCC(CCCCCCCCCCCCCCCCC)OP(=O)(O)O | > 100 | > 100 | > 100 | > 100 | > 100 | > 100 | > 100 | > 100 | – | – |
| COc1ccccc1C12OC(=O)C1(C)Oc1ccccc1C2=O (stereo not given) | > 100 | > 100 | > 100 | > 100 | > 100 | > 100 | > 100 | > 100 | > 100 | – |
| O=C(N/C(=C\c1ccc(/C=C(\NC(=O)c2ccccc2)c2nc3cc([N+](=O)[O-])ccc3[nH]2)cc1)c1nc2cc([N+](=O)[O-])ccc2[nH]1)c1ccccc1 | > 100 | 77.2 | > 100 | > 100 | > 100 | > 100 | > 100 | > 100 | > 100 | – |
| COC1(OC)CCC2C1C1CCC(OC)(OC)C21 (stereo not given) | > 50 | > 50 | > 50 | > 50 | > 50 | > 50 | > 50 | > 50 | > 50 | – |
| COC1CCC2C(NS(=O)(=O)c3ccc(C)cc3)CCCC2O1 (stereo not given) (tested in a mixture with another compound) | > 34.5 | > 34.5 | 15.8 | > 34.5 | – | > 34.5 | > 34.5 | 20.9 | > 34.5 | – |
| O=C1C(=O)N(c2ccc(Cl)cc2Cl)C(=O)C(=O)C1c1nc2ccccc2s1 | > 100 | > 100 | > 100 | > 100 | > 100 | > 100 | > 100 | > 89.2 | > 100 | – |
| Clc1cc2nsnc2c(Cl)n1 | – | > 100 | – | – | 31.7 | > 100 | 79.4 | 43.6 | > 100 | – |
| O=C(O)CSc1ccc([N+](=O)[O-])cc1[N+](=O)[O-] | > 100 | > 100 | > 100 | > 100 | – | > 100 | > 100 | – | > 100 | > 100 |
| CC1=C(C(=O)NCc2ccccc2)C(/C=C/c2ccccc2)C(C(=O)NCc2ccccc2)=C(C)N1 | > 100 | > 100 | > 100 | > 100 | – | > 100 | > 100 | > 100 | > 100 | – |
| O=C(O)CCc1coc2ccc(O)cc12 | > 100 | > 100 | > 100 | > 100 | > 100 | > 100 | – | > 100 | > 100 | – |
| CC(=O)NNc1nc(C)c(C(=O)NNC(=O)C(=O)Nc2c(Cl)cc([N+](=O)[O-])cc2Cl)s1 | > 100 | > 100 | > 100 | > 100 | > 100 | > 100 | 86.1 | 97.6 | > 100 | – |
| Cc1nc2ccccc2c(=O)n1-c1ccccc1I | > 100 | > 100 | > 100 | > 100 | > 100 | > 100 | > 100 | > 100 | > 100 | – |
